Assay results as given in ChEMBL document CHEMBL1157081, “HPLC-based activity profiling for GABA(A) receptor modulators: a new dihydroisocoumarin from Haloxylon scoparium” (J Nat Prod, 2010).
Active and inactive are the calls of the source. The calls are words filed in the database; no cut-off is given here.

Columns and labels:
[1] = Allosteric modulation at GABA A receptor alpha-1-beta-2-gamma-2S expressed in Xenopus oocytes assessed as enhancement of GABA-induced chloride current; assay type: cell-based; conditions: Oocyte
Oocyte [2] = assay: Allosteric modulation at GABA A receptor alpha-1-beta-2-gamma-2S expressed in Xenopus oocytes assessed as enhancement of GABA-induced chloride current at 500 uM; assay type: cell-based
Oocyte [3] = assay: Agonist activity at GABA A receptor alpha-1-beta-2-gamma-2S expressed in Xenopus oocytes assessed as enhancement of chloride current at 500 uM; assay type: functional, cell-based
Oocyte [4] = assay: Allosteric modulation at GABA A receptor alpha-1-beta-2-gamma-2S expressed in Xenopus oocytes assessed as enhancement of GABA-induced chloride current at >=3 uM; assay type: cell-based

Row | EC50 [1] [µM] | Activity (Oocyte [2]) [%] | Activity (Oocyte [3]) | Activity (Oocyte [4]) | Compound
1 | 237 |  |  |  | CC1(C)C2CCC1(C)C(O)C2 (racemic) [BORNEOL]
2 | 140 | 145 | inactive | Active | COc1c2c(cc3c1C(=O)O[C@H](c1ccccc1)C3)OCO2

Row | Compound | EC50 [1] [µM] | Activity (Oocyte [2]) [%] | Activity (Oocyte [3]) | Activity (Oocyte [4])
3 | CC(C)=CCC[C@](C)(O[C@@H]1O[C@H](CO[C@@H]2O[C@@H](CO)[C@H](O)[C@H]2O)[C@@H](O)[C@H](O)[C@H]1O)[C@H]1CC[C@]2(C)[C@@H]1[C@H](O)C[C@@H]1[C@@]3(C)CC[C@H](O[C@@H]4O[C@H](CO)[C@@H](O)[C@H](O)[C@H]4O[C@@H]4O[C@H](CO)[C@@H](O)[C@H](O)[C@H]4O)C(C)(C)[C@@H]3CC[C@]12C [GINSENOSIDE RC] | 53.2 |  |  | 
